Data as given in US20110158980A1, “METHODS TO TREAT AND SCREEN FOR AGENTS TO TREAT OBESITY” (TRUSTEES OF TUFTS COLLEGE, priority 2008, published 2011).

Key:
Type in all cases: cell-based
3T3-L1 adipocytes [1] = assay: Amino acid uptake or output of adipocytes (HPLC of spent medium); conditions: day 12 post-induction, positive value = uptake
Protocol: (§1) 3T3-L1 preadipocytes were plated onto 24-well plates and expanded in preadipocyte growth medium consisting of DMEM supplemented with calf serum (10% v/v), penicillin and streptomycin. Medium was replenished every other day. Two days post-confluence, the cells were induced to differentiate using an adipogenic cocktail (1 μg/ml insulin, 0.5 mM isobutylmethylxanthine, and 1 μM dexamethasone) added to a basal medium (DMEM with 10% fetal bovine serum and penicillin/streptomycin). After 48 hrs, the first medium was replaced with a second induction medium consisting of the basal adipocyte medium supplemented with only insulin. […] This basal medium was replenished every other day during the remainder of the culture experiments.
(§2) Metabolite measurements were performed both on cell lysates and spent medium samples as described previously (Si Y, Yoon J, Lee K. American journal of physiology 2007; 292:E1637-46). Cells were lysed in situ with an 0.1% SDS buffer and sonicated. Immediately after collection, the spent medium samples were cleaned of cell debris by a brief centrifugation step. Free glycerol, TG and free fatty acids (FFAs) were measured using enzymatic assay kits (SIGMA™). Glucose and lactate concentrations were measured using the methods of Trinder (Trinder P. J Clin Pathol 1969; 22:158-61) and Loomis (Loomis M E. J Lab Clin Med 1961; 57:966-9), respectively. Amino acids were quantified by HPLC using fluorescence-based detection following pre-column derivatization of primary or secondary amines with 6-aminoquinolyl-N-hydroxysuccinimidyl-carbamate (Cohen S A, De Antonis K M. J Chromatogr A 1994; 661:25-34). All metabolite data were normalized by the corresponding cell sample DNA content, which was determined with a fluorescence-based assay using the Hoechst dye.

3T3-L1 adipocytes [2] = assay: Metabolite assays (TG, FFA, glucose, lactate, glycerol) on cell lysates and spent medium; conditions: day 12 post-induction
Protocol: as §1, §2

3T3-L1 adipocytes [3] = assay: Oxygen uptake rate by fiber-optic microsensor; conditions: phenylacetate at the higher concentration (10 mM); day 12 post-induction; FIG. 2F
Protocol: The dissolved oxygen in the culture medium was measured using a needle-type fiber-optic microsensor (MicroxTX3, Presens, Regensburg, Germany). The concentration data were related to the oxygen uptake rate (OUR) using the following diffusion-reaction model:
where c0 and hb are, respectively, the oxygen concentration at medium surface and height of the medium in the culture well. The bottom of the culture plate (and cell monolayer) is at z=−hb. Integrating equation (1) and applying the boundary conditions we obtain: […]
where hm and cm are, respectively, the distance between the probe and the medium surface and the measured oxygen concentration in the medium at the probe depth. The oxygen uptake rate was calculated by dividing the flux JO2 by the cell density. The measured oxygen uptake rate was used for relative comparisons between the treatment groups and not used for MFA in order to independently confirm the calculated oxygen uptake rate.

SMILES: O=C(O)Cc1ccccc1 [phenylacetate]
- ALA uptake or output (3T3-L1 adipocytes [1]; 5 mM PA): 0.4 ± 0.1 mmol/g-DNA/2 days
- ASN uptake or output (3T3-L1 adipocytes [1]; 5 mM PA): −4.6 ± 0.2 mmol/g-DNA/2 days
- ASP uptake or output (3T3-L1 adipocytes [1]; 5 mM PA): 0.0 ± 0.0 mmol/g-DNA/2 days
- GLN uptake or output (3T3-L1 adipocytes [1]; 5 mM PA): −7.9 ± 0.6 mmol/g-DNA/2 days
- GLU uptake or output (3T3-L1 adipocytes [1]; 5 mM PA): 0.3 ± 0.0 mmol/g-DNA/2 days
- GLY uptake or output (3T3-L1 adipocytes [1]; 5 mM PA): −7.3 ± 0.2 mmol/g-DNA/2 days
- HIS uptake or output (3T3-L1 adipocytes [1]; 5 mM PA): −0.1 ± 0.1 mmol/g-DNA/2 days
- ILE uptake or output (3T3-L1 adipocytes [1]; 5 mM PA): 8.1 ± 0.3 mmol/g-DNA/2 days
- LEU uptake or output (3T3-L1 adipocytes [1]; 5 mM PA): 8.6 ± 0.3 mmol/g-DNA/2 days
- LYS uptake or output (3T3-L1 adipocytes [1]; 5 mM PA): −1.8 ± 0.1 mmol/g-DNA/2 days
- MET uptake or output (3T3-L1 adipocytes [1]; 5 mM PA): 0.1 ± 0.1 mmol/g-DNA/2 days
- PHE uptake or output (3T3-L1 adipocytes [1]; 5 mM PA): −0.1 ± 0.1 mmol/g-DNA/2 days
- PRO uptake or output (3T3-L1 adipocytes [1]; 5 mM PA): −1.4 ± 0.0 mmol/g-DNA/2 days
- SER uptake or output (3T3-L1 adipocytes [1]; 5 mM PA): 4.5 ± 0.2 mmol/g-DNA/2 days
- THR uptake or output (3T3-L1 adipocytes [1]; 5 mM PA): −1.2 ± 0.1^ mmol/g-DNA/2 days
- TYR uptake or output (3T3-L1 adipocytes [1]; 5 mM PA): 0.1 ± 0.2 mmol/g-DNA/2 days
- VAL uptake or output (3T3-L1 adipocytes [1]; 5 mM PA): 5.1 ± 0.4 mmol/g-DNA/2 days
- ALA uptake or output (3T3-L1 adipocytes [1]; 10 mM PA): −0.5 ± 0.1 mmol/g-DNA/2 days
- ASN uptake or output (3T3-L1 adipocytes [1]; 10 mM PA): −5.9 ± 0.4 mmol/g-DNA/2 days
- ASP uptake or output (3T3-L1 adipocytes [1]; 10 mM PA): 0.0 ± 0.0 mmol/g-DNA/2 days
- GLN uptake or output (3T3-L1 adipocytes [1]; 10 mM PA): 2.6 ± 2.9 mmol/g-DNA/2 days
- GLU uptake or output (3T3-L1 adipocytes [1]; 10 mM PA): 0.3 ± 0.0 mmol/g-DNA/2 days
- GLY uptake or output (3T3-L1 adipocytes [1]; 10 mM PA): −7.9 ± 0.9^ mmol/g-DNA/2 days
- HIS uptake or output (3T3-L1 adipocytes [1]; 10 mM PA): −0.1 ± 0.2 mmol/g-DNA/2 days
- ILE uptake or output (3T3-L1 adipocytes [1]; 10 mM PA): 7.5 ± 0.2 mmol/g-DNA/2 days
- LEU uptake or output (3T3-L1 adipocytes [1]; 10 mM PA): 7.9 ± 0.2 mmol/g-DNA/2 days
- LYS uptake or output (3T3-L1 adipocytes [1]; 10 mM PA): −2.0 ± 0.2 mmol/g-DNA/2 days
- MET uptake or output (3T3-L1 adipocytes [1]; 10 mM PA): 0.1 ± 0.2 mmol/g-DNA/2 days
- PHE uptake or output (3T3-L1 adipocytes [1]; 10 mM PA): −0.1 ± 0.4 mmol/g-DNA/2 days
- PRO uptake or output (3T3-L1 adipocytes [1]; 10 mM PA): −2.1 ± 0.2 mmol/g-DNA/2 days
- SER uptake or output (3T3-L1 adipocytes [1]; 10 mM PA): 4.6 ± 0.5 mmol/g-DNA/2 days
- THR uptake or output (3T3-L1 adipocytes [1]; 10 mM PA): −1.4 ± 0.4^ mmol/g-DNA/2 days
- TYR uptake or output (3T3-L1 adipocytes [1]; 10 mM PA): −0.0 ± 0.4 mmol/g-DNA/2 days
- VAL uptake or output (3T3-L1 adipocytes [1]; 10 mM PA): 3.8 ± 0.4 mmol/g-DNA/2 days
- Increase of glucose uptake (3T3-L1 adipocytes [2]; 5 mM phenylacetate): 38%
- Increase of glycerol output (3T3-L1 adipocytes [2]; 5 mM phenylacetate): 1.2 fold
- Increase of lactate output (3T3-L1 adipocytes [2]; 5 mM phenylacetate): more than 2 fold
- Reduction of intracellular free fatty acid concentration (3T3-L1 adipocytes [2]; 5 mM phenylacetate): 9%
- Increase of glucose uptake (3T3-L1 adipocytes [2]; 10 mM phenylacetate): 28%
- Increase of glycerol output (3T3-L1 adipocytes [2]; 10 mM phenylacetate): 1.4 fold
- Increase of lactate output (3T3-L1 adipocytes [2]; 10 mM phenylacetate): more than 2 fold
- Reduction of intracellular free fatty acid concentration (3T3-L1 adipocytes [2]; 10 mM phenylacetate): 17%
- Reduction of oxygen consumption (3T3-L1 adipocytes [3]): 25%
